Data from US7396682B2, “Method for cell adhesion and wound healing” (Regen Biotech, Inc., priority 2000, dated 2008).
Entries after “also recorded” stand apart in the source; their conditions may differ.

Key:
HCE cells = test: Inhibition assay of HCE cell adhesion using matrix peptides and reagents; assay type: cell-based, human; details: HCE cells preincubated 30 min with reagent; for inhibition of cell adhesion to fibronectin: dishes coated with 10 μg/ml fibronectin; for inhibition of cell adhesion to βig-h3: dishes coated with 10 μg/ml βig-h3
Procedure: In order to identify cell surface receptors involved in the cell adhesion activity of βig-h3 protein, an inhibition assay was performed using various reagents.
Initially, plastic culture dishes were coated with 10 μg/ml fibronectin, βigh3-WT or βigh3-ΔRGD. HCE cells were preincubated for 30 min in media containing 5 mM EDTA, 100 μg/ml βigh3-WT, 100 μg/ml βigh3-ΔRGD, 1 mM RGD, 1 mM RGE or 100 μg/ml fibronectin, or none of them, and then assayed for cell adhesion as in Example 1.

[1] = system: Human corneal epithelial (HCE) cells; test: HCE cell adhesion and spreading assay on protein-coated plates; assay type: cell-based; details: HCE cells on coated recombinant protein
Procedure: Human corneal epithelial (HCE) cells used in this assay were cultured in DMEM ([…], Gibco BRL) supplemented with 15% fetal bovine serum, Gentamicin (40 μg/ml), insulin (5 μg/ml), cholera toxin (0.1 μg/ml) and human epidermal growth factor (hEGF) at 37° C. in 5% CO2.
The cell adhesion assay was performed as follows. First, the recombinant βig-h3 proteins or other extracellular matrix proteins were let to adhere to the bottoms of 96-well microculture plates (Falcon) by incubation at 37° C. for 1 hour and blocked with PBS containing 0.2% BSA. The coated extracellular matrix proteins were human plasma vitronectin (Promega), purified human plasma fibronectin (pFN), chicken collagen types I and II (Chemicon International Inc.), bovine collagen types IV and VI (Chemicon), mouse laminin (Chemicon), and bovine serum albumin (BSA) (Sigma). Cells were trypsinized and suspended in the culture media at a density of 2×10^5 cells/ml. 0.1 ml of the cell suspension was added to each well of the plates coated with the recombinant proteins.
Following incubation at 37° C. for 1 hour, unattached cells were removed by rinsing with PBS. Attached cells were incubated for 1 hour at 37° C. in 50 mM citrate buffer, pH 5.0, containing 3.75 mM p-nitrophenol-N-acetyl 1-β-D-glycosaminide as a hexosaminidase substrate and 0.25% Triton X-100, followed by the addition of 50 mM glycine buffer, pH 10.4, containing 5 mM EDTA to block the enzyme activity. A measurement was made of absorbance at 405 nm in a Multiskan MCC/340 microplate reader.
To determine cell area as an index for cell adhesion activity, 4×10^4 cells were applied to substrates in 48-well culture plates. The attached cells were fixed weith 8% glutaraldehyde (Sigma) and then stained with 0.25% Crystal Violet (Sigma) in 20% methanol. Measurement of cell areas was performed by Image-Pro plus software (Media Cybernetics). Experiments were repeated in triplicate with 200 or 300 measurements per site for each experiment. Data is reported as the mean area at specific time points±standard error of mean.

K562 cells = test: K562 cell adhesion to coated proteins (hexosaminidase analysis); assay type: cell-based; details: 1 hour
Procedure: For another control experiment, K562 cells, known to express α5, but not α3 integrin, were used. K562 cells were inoculated onto plates coated with βigh3-WT, fibronectin, laminin, or type I collagen and incubated for 1 hour, followed by the hexosaminidase analysis.

Molecule | inhibition of cell adhesion to fibronectin (HCE cells) | inhibition of cell adhesion to βig-h3 (HCE cells) | HCE cell adhesion activity [1] | adhesion of K562 cells to coated protein (K562 cells)
O=C(O)CN(CCN(CC(=O)O)CC(=O)O)CC(=O)O [EDTA] | significantly inhibited | significantly inhibited |  | 
O=C(O)CN(CCOCCOCCN(CC(=O)O)CC(=O)O)CC(=O)O [EGTA] | partially inhibited | partially inhibited |  | 
RGD peptide: Arg-Gly-Asp peptide used at 1 mM in inhibition assay | significantly inhibited | significantly inhibited |  | 
RGE peptide: RGE peptide used at 1 mM in inhibition assay |  | not inhibited |  | 
βig-h3 D-II: recombinant polypeptide, 2nd fas-1 domain of βig-h3, amino acids 237-377 (SEQ ID NO:24) (protein, left off: small tags and cut ends) STITNNIQQIIEIEDTFETLRAAVAASGLNTMLEGNGQYTLLAPTNEAFEKIPSETLNRILGDPEALRDLLNNHILKSAMCAEAIVAGLSVETLEGTTLEVGCSGDMLTINGKAIISNKDILATNGVIHYIDELLIPDSAK |  |  | equally active compared to the wild type βig-h3; also recorded: high cell attachment activity | 
vitronectin: human plasma vitronectin (Promega), coated extracellular matrix protein (protein) DQESCKGRCTEGFNVDKKCQCDELCSYYQSCCTDYTAECKPQVTRGDVFTMPEDEYTVYDDGEEKNNATVHEQVGGPSLTSDLQAQSKGNPEQTPVLKPEEEAPAPEVGASKPEGIDSRPETLHPGRPQPPAEEELCSGKPFDAFTDLKNGSLFAFRGQYCYELDEKAVRPGYPKLIRDVWGIEGPIDAAFTRINCQGKTYLFKGSQYWRFEDGVLDPDYPRNISDGFDGIPDNVDAALALPAHSYSGRERVYFFKGKQYWEYQFQHQPSQEECEGSSLSAVFEHFAMMQRDSWEDIFELLFWGRTSAGTRQPQFISRDWHGVPGQVDAAMAGRIYISGMAPRPSLAKKQRFRHRNRKGYRSQRGHSRGRNQNSRRPSRATWLSLFSSEESNLGANNYDDYRMDWLVPATCEPIQSVFFFSGDKYYRVNLRTRRVDTVDPPYPRSIAQYWLGCPAPGHL |  |  |  | adhered
